Measurements from patent US8420594B2, “Inhibitors of MRP4 and agents stimulating MRP4 activity for the treatment of cardiac disorders” (INSERM (Institute de la Sante et de la Recherche Medicale), priority 2008, dated 2013).
Where two headings read alike, the source gives them in different places.

How the values were obtained:
[1] = system: PDE3
Method: Briefly, mice were euthanized by cervical dislocation, the heart rapidly excised and retrogradely perfused at 37° C. for 6-8 min with a modified tyrode solution (in mM: NaCl113, KCL 4.7, KH2PO4 0.6, Na2HPO4 0.6, MgSO4 1.2, NaHCO3 12, KHCO3 10, HEPES10 Taurine 30, pH=7.4) containing 1 mg.ml-1 of liberase (Roche, France). Isolated myocytes were then transferred to the same solution, free of enzyme, containing 1 mM CaCl2.
In addition, we have measured the effect of PDE3 inhibition by cilostamide on the contractility of ventricular myocytes isolated from WT and MRP4 KO mice.

[2] = system: PDE3; remark: listed apart in the source
Method: Cardiac ventricular myocytes were enzymatically dissociated using standard procedures (Fauconnier, J. et al. Diabetes, 2007). Briefly, mice were euthanized by cervical dislocation, the heart rapidly excised and retrogradely perfused at 37° C. for 6-8 min with a modified tyrode solution (in mM: NaCl113, KCL 4.7, KH2PO4 0.6, Na2HPO4 0.6, MgSO4 1.2, NaHCO3 12, KHCO3 10, HEPES10 Taurine 30, pH=7.4) containing 1 mg.ml-1 of liberase (Roche, France). Isolated myocytes were then transferred to the same solution, free of enzyme, containing 1 mM CaCl2.
Cells were loaded for 30 min at RT with Fluo-4 AM (5 μmol/l, Molecular Probes). Cells were then field-stimulated at 1 Hz with a 1-2 ms current pulse delivered via two platinum electrodes, one on each side of the perfusion chamber. Changes in Fluo-4 fluorescence were recorded using an LSM510 Meta Zeiss confocal microscope equipped with a 63× water immersion objective (NA: 1.2). Measurements were performed in line-scan mode (1.5 ms/line) and scanning was carried out along the long axis of the cell. An excitation wavelength of 488 nm was used, and emitted light was collected through a 505 nm long pass filter. The laser intensity used (3-6% of the maximum) had no noticeable deleterious effect on the fluorescence signal or on cell function over the time-course of the experiment. To enable comparisons between cells, the change in fluorescence (ΔF) was divided by the fluorescence detected immediately before the 0.5 Hz stimulation pulse (F0).

[3] = system: β-adrenergic system; assay: Chronic β-adrenergic stimulation, isoproterenol-induced cardiac hypertrophy; assay type: in vivo; conditions: 20 μg/g/day for 2 weeks by miniosmotic pumps, 3 month-old MRP4 KO vs WT mice
Method: Animal models. MRP4 ablated mice (MRP4 KO) were generated and genotyped as described (Leggas, M. et al. Mol Cell Biol 24, 7612-21 (2004). Wild-type and homozygous MRP4-KO mice (8-10 weeks of age) were subjected to left ventricular pressure overload by transverse aortic constriction (TAC), as previously described (Rockman, et al. Proc Natl Acad Sci USA 88, 8277-81 (1991). Five weeks after the procedure, the animals were sacrified and heart and body weights were determined. As a model of β-adenergic overstimulation miniosmotic pumps (Alzet) containing (−)-isoproterenol-bitartrate (Sigma Aldrich) (delivering 20 μg/g/day each) were implanted subcutaneously into 10-12 weeks old animals. Determination of heart weights and analysis of gene expression were carried out after 14 days of continuous infusion. Finally, male MRP4 KO mice and WT littermate were subjected to voluntary exercise. The animals were 10-12 weeks at the start of the study. Individual animals were housed in a cage with free access to a 11.5-cm-diameter running wheel with a 5.0-cm-wide running surface equipped with a digital magnetic counter (model BC 1200, Sigma Sport) that is activated by wheel rotation. Daily exercise values for time and distance run were recorded for each exercised animal throughout the duration of the exercise period. […]

[4] = system: PDE3; assay: Chronotropic effect of PDE3 inhibitor, telemetric ECG (RR interval) in WT and MRP4 KO mice; assay type: in vivo; conditions: for heart rate: wild-type mice
Method: Animal models. MRP4 ablated mice (MRP4 KO) were generated and genotyped as described (Leggas, M. et al. Mol Cell Biol 24, 7612-21 (2004). Wild-type and homozygous MRP4-KO mice (8-10 weeks of age) were subjected to left ventricular pressure overload by transverse aortic constriction (TAC), as previously described (Rockman, et al. Proc Natl Acad Sci USA 88, 8277-81 (1991). Five weeks after the procedure, the animals were sacrified and heart and body weights were determined. As a model of β-adenergic overstimulation miniosmotic pumps (Alzet) containing (−)-isoproterenol-bitartrate (Sigma Aldrich) (delivering 20 μg/g/day each) were implanted subcutaneously into 10-12 weeks old animals. Determination of heart weights and analysis of gene expression were carried out after 14 days of continuous infusion. Finally, male MRP4 KO mice and WT littermate were subjected to voluntary exercise. The animals were 10-12 weeks at the start of the study. Individual animals were housed in a cage with free access to a 11.5-cm-diameter running wheel with a 5.0-cm-wide running surface equipped with a digital magnetic counter (model BC 1200, Sigma Sport) that is activated by wheel rotation. Daily exercise values for time and distance run were recorded for each exercised animal throughout the duration of the exercise period.
Telemetry studies. Long-term telemetric ambulatory ECG measurements were performed in wild type and knock out male mice at 3 months of age. Six-lead restrained ECG monitoring of conscious animals (hamsters and mice) were performed with EasyCG® tools system (EMKA technologies, France) formed by the four sensors of ecgTUNNEL® system platform and a translucent animal sizefitting half-tunnel. Each animal was put inside the tunnel, which was then closed, assuring the animal to be properly restrained. The four wires of the platform were connected to a wireless transmitter and amplifier system (emkaPACK®, EMKA technologies). Telemetric ECG tracing were obtained in conscious mice during quiet awake time at daytime. To minimize the effects of stress, animals were allowed to stay in the restraining system for 5 min before starting ECG recordings. […] Six leads of ECG were recorded during 15 to 20 min using specific software (iox®, EMKA technologies): three leads were measured (L1, L2, L3), and three were calculated (aVR, aVL, aVF). Dedicated software (Ecg-auto®, EMKA technologies) was used to measure RR interval, SDNN and HRV index. If needed, raw data were submitted to a 50-Hz notch filter with an automatic setting determined by the software.

## CN(C(=O)CCCOc1ccc2[nH]c(=O)ccc2c1)C1CCCCC1 [Cilostamide]
[1]; MRP4 KO compared to WT
  contractility increase, MRP4 KO vs WT: significantly more
[1]; MRP4 KO mice myocytes
  contractility of ventricular myocytes: increased
[1]; WT mice myocytes
  contractility of ventricular myocytes: increased
[2]; MRP4 KO mice myocytes
  Ca2+ transient amplitude (ΔF/F0): increased
  Ca2+ transient half width: decreased
  Ca2+ transient rate of decay t: decreased
  Ca2+ transient rate of rise (ΔF/F0.ms−1): decreased
[2]; myocytes isolated from WT heart
  Ca2+ transient: no effect

## CC(C)NC[C@H](O)c1ccc(O)c(O)c1 [Isoproterenol, (−)-isoproterenol-bitartrate]
[3]
  cardiac hypertrophy (HW/TL ratio): significantly more important

## Cc1[nH]c(=O)c(C#N)cc1-c1ccncc1 [Milrinone]
[4]; 0.1 mg/kg, MRP4 KO mice
  RR interval: significant decrease
[4]; 0.1 mg/kg
  heart rate: not changing heart rate
[4]; 1 mg/kg, MRP4 KO mice compared to wild-type mice
  decrease in RR interval: significantly higher
[4]; 1 mg/kg
  heart rate: acceleration of heart rate
[4]; MRP4 KO mice compared to wild-type
  chronotropic dose-effect: dramatically enhanced
